Experimental data from patent US20100137313A1 (ASTRAZENECA AB, priority 2008, published 2010).

Molecular target: S. pneumoniae Topoisomerase IV ATPase (ParE) (Streptococcus pneumoniae serotype 4, UniProt Q59961)
Experiment: S. pneumoniae Topoisomerase IV ATPase inhibition
Format: biochemical
Settings: values marked * are an average of two or more data points, read-out: % Inh (13 μM) of S. pneumoniae Topoisomerase IV ATPase
How it was run: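 Phosphate release by ParE ATPase from S. pneumoniae read colorimetrically (malachite green, 650 nm), enzyme 1.25 nM, ATP 160 μM, salmon sperm DNA present, buffer 20 mM Tris pH 8.0 with 8 mM MgCl2. IC50 over 10 compound concentrations, EDTA (20 μM) and DMSO controls defining inhibition range.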

Sequence of S. pneumoniae Topoisomerase IV ATPase (ParE) (Q59961 whole entry): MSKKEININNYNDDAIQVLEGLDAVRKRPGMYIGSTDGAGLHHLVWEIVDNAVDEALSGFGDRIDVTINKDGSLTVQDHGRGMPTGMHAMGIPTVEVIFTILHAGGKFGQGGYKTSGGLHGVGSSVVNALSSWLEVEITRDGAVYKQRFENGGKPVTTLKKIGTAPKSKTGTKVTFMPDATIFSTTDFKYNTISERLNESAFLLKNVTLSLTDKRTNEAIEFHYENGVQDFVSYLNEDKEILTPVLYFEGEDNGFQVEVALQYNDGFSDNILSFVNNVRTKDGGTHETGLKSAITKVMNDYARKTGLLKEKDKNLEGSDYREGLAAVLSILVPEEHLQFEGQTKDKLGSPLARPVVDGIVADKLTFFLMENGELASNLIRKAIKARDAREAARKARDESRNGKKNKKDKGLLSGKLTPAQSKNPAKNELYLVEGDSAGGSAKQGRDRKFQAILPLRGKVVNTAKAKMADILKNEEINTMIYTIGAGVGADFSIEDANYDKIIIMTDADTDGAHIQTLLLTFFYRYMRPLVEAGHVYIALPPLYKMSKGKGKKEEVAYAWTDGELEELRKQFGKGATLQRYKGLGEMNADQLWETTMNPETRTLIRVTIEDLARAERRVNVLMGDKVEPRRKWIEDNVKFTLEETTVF

Row | Structure (SMILES) | inhibition at 13 µM [%]
1 | COc1cc(Nc2ncc(-c3cnc(-n4ccnc4)c(C(=O)O)c3)c(-n3ccc(C(F)(F)F)n3)n2)cc(OC)c1 [Example 590, 5-(2-(3,5-dimethoxyphenylamino)-4-(3-(trifluoromethyl)-1H-pyrazol-1-yl)pyrimidin-5-yl)-2-(1H-imidazol-1-yl)nicotinic acid] | 100
2 | CNc1ncc(-c2cnc(Nc3cc(OC)cc(OC)c3)nc2-n2nc(C(F)(F)F)cc2C)cc1C(=O)O [Example 591, 5-(2-(3,5-dimethoxyphenylamino)-4-(5-methyl-3-(trifluoromethyl)-1H-pyrazol-1-yl)pyrimidin-5-yl)-2-(methylamino)nicotinic acid] | 100
3 | COc1cc(Nc2ncc(-c3cc(C(=O)O)cn(C)c3=O)c(-n3ccc(C(F)(F)F)n3)n2)cc(OC)c1 [Example 592, 5-(2-(3,5-dimethoxyphenylamino)-4-(3-(trifluoromethyl)-1H-pyrazol-1-yl)pyrimidin-5-yl)-1-methyl-6-oxo-1,6-dihydropyridine-3-carboxylic acid] | 100
4 | CN(CC(=O)O)c1cccc(-c2cnc(Nc3ccc(F)c(Cl)c3)nc2-n2ccc(C(F)(F)F)n2)c1 [Example 598, N-(3-{2-[(3-chloro-4-fluorophenyl)amino]-4-[3-(trifluoromethyl)-1H-pyrazol-1-yl]pyrimidin-5-yl}phenyl)-N-methylglycine] | 82
5 | O=C(O)[C@@H]1CCCN1c1cccc(-c2cnc(Nc3ccc(F)c(Cl)c3)nc2-n2ccc(C(F)(F)F)n2)c1 [Example 599, 1-(3-{2-[(3-chloro-4-fluorophenyl)amino]-4-[3-(trifluoromethyl)-1H-pyrazol-1-yl]pyrimidin-5-yl}phenyl)-L-proline] | 94
6 | O=C(O)[C@H]1CCCN1c1cccc(-c2cnc(Nc3ccc(F)c(Cl)c3)nc2-n2ccc(C(F)(F)F)n2)c1 [Example 600, 1-(3-{2-[(3-chloro-4-fluorophenyl)amino]-4-[3-(trifluoromethyl)-1H-pyrazol-1-yl]pyrimidin-5-yl}phenyl)-D-proline] | 100
7 | O=C(O)C1CCCN(c2cccc(-c3cnc(Nc4ccc(F)c(Cl)c4)nc3-n3ccc(C(F)(F)F)n3)c2)C1 (centres unmarked) [Example 601, 1-(3-{2-[(3-chloro-4-fluorophenyl)amino]-4-[3-(trifluoromethyl)-1H-pyrazol-1-yl]pyrimidin-5-yl}phenyl)piperidine-3-carboxylic acid] | 100
8 | O=C(O)C1CCCCN1c1cccc(-c2cnc(Nc3ccc(F)c(Cl)c3)nc2-n2ccc(C(F)(F)F)n2)c1 (centres unmarked) [Example 602, 1-(3-{2-[(3-chloro-4-fluorophenyl)amino]-4-[3-(trifluoromethyl)-1H-pyrazol-1-yl]pyrimidin-5-yl}phenyl)piperidine-2-carboxylic acid] | 100
9 | O=C(O)C1CCN(c2cccc(-c3cnc(Nc4ccc(F)c(Cl)c4)nc3-n3ccc(C(F)(F)F)n3)c2)C1 (centres unmarked) [Example 604, 1-(3-{2-[(3-chloro-4-fluorophenyl)amino]-4-[3-(trifluoromethyl)-1H-pyrazol-1-yl]pyrimidin-5-yl}phenyl)pyrrolidine-3-carboxylic acid] | 100
10 | COc1cc(Nc2ncc(-c3cccc(/C=C/C(=O)O)c3)c(-n3ccc(C(F)(F)F)n3)n2)cc(OC)c1 [Example 615, (2E)-3-(3-{2-[(3,5-dimethoxyphenyl)amino]-4-[3-(trifluoromethyl)-1H-pyrazol-1-yl]pyrimidin-5-yl}phenyl)prop-2-enoic acid] | 100
11 | COc1cc(Nc2ncc(-c3cccc(/C=C/C(=O)O)c3)c(-n3nc(C(F)(F)F)cc3C)n2)cc(OC)c1 [Example 616, (2E)-3-(3-{2-[(3,5-dimethoxyphenyl)amino]-4-[5-methyl-3-(trifluoromethyl)-1H-pyrazol-1-yl]pyrimidin-5-yl}phenyl)prop-2-enoic acid] | 99
12 | Cc1cc(C)cc(Nc2ncc(-c3cccc(/C=C/C(=O)O)c3)c(-n3ccc(C(F)(F)F)n3)n2)c1 [Example 617, (2E)-3-(3-{2-[(3,5-dimethylphenyl)amino]-4-[3-(trifluoromethyl)-1H-pyrazol-1-yl]pyrimidin-5-yl}phenyl)prop-2-enoic acid] | 100
13 | Cc1cc(C)cc(Nc2ncc(-c3cccc(/C=C/C(=O)O)c3)c(-n3nc(C(F)(F)F)cc3C)n2)c1 [Example 618, (2E)-3-(3-{2-[(3,5-dimethylphenyl)amino]-4-[5-methyl-3-(trifluoromethyl)-1H-pyrazol-1-yl]pyrimidin-5-yl}phenyl)prop-2-enoic acid] | 98
14 | O=C(O)/C=C/c1cccc(-c2cnc(Nc3cc(F)cc(F)c3)nc2-n2ccc(C(F)(F)F)n2)c1 [Example 619, (2E)-3-(3-{2-[(3,5-difluorophenyl)amino]-4-[3-(trifluoromethyl)-1H-pyrazol-1-yl]pyrimidin-5-yl}phenyl)prop-2-enoic acid] | 100
15 | Cc1cc(C(F)(F)F)nn1-c1nc(Nc2cc(F)cc(F)c2)ncc1-c1cccc(/C=C/C(=O)O)c1 [Example 620, (2E)-3-(3-{2-[(3,5-difluorophenyl)amino]-4-[5-methyl-3-(trifluoromethyl)-1H-pyrazol-1-yl]pyrimidin-5-yl}phenyl)prop-2-enoic acid] | 96
16 | O=C(O)/C=C/c1cccc(-c2cnc(Nc3cccc(F)c3)nc2-n2ccc(C(F)(F)F)n2)c1 [Example 621, (2E)-3-(3-{2-[(3-fluorophenyl)amino]-4-[3-(trifluoromethyl)-1H-pyrazol-1-yl]pyrimidin-5-yl}phenyl)prop-2-enoic acid] | 100
17 | Cc1cc(C(F)(F)F)nn1-c1nc(Nc2cccc(F)c2)ncc1-c1cccc(/C=C/C(=O)O)c1 [Example 622, (2E)-3-(3-{2-[(3-fluorophenyl)amino]-4-[5-methyl-3-(trifluoromethyl)-1H-pyrazol-1-yl]pyrimidin-5-yl}phenyl)prop-2-enoic acid] | 98
18 | CS(=O)(=O)c1cccc(Nc2ncc(-c3cccc(/C=C/C(=O)O)c3)c(-n3ccc(C(F)(F)F)n3)n2)c1 [Example 623, (2E)-3-[3-(2-{[3-(methylsulfonyl)phenyl]amino}-4-[3-(trifluoromethyl)-1H-pyrazol-1-yl]pyrimidin-5-yl)phenyl]prop-2-enoic acid] | 100
19 | Cc1cc(C(F)(F)F)nn1-c1nc(Nc2cccc(S(C)(=O)=O)c2)ncc1-c1cccc(/C=C/C(=O)O)c1 [Example 624, (2E)-3-[3-(2-{[3-(methylsulfonyl)phenyl]amino}-4-[5-methyl-3-(trifluoromethyl)-1H-pyrazol-1-yl]pyrimidin-5-yl)phenyl]prop-2-enoic acid] | 89
20 | COc1cc(Nc2ncc(-c3cncc(C(=O)O)c3)c(-n3ccc(C(F)(F)F)n3)n2)cc(OC)c1 [Example 635, 5-{2-[(3,5-Dimethoxyphenyl)amino]-4-[3-(trifluoromethyl)-1H-pyrazol-1-yl]pyrimidin-5-yl}pyridine-3-carboxylic acid] | 100
21 | COc1cc(Nc2ncc(-c3cncc(C(=O)O)c3)c(-n3nc(C(F)(F)F)cc3C)n2)cc(OC)c1 [Example 636, 5-{2-[(3,5-dimethoxyphenyl)amino]-4-[5-methyl-3-(trifluoromethyl)-1H-pyrazol-1-yl]pyrimidin-5-yl}pyridin-3-carboxylic acid] | 100
22 | Cc1cc(C)cc(Nc2ncc(-c3cncc(C(=O)O)c3)c(-n3ccc(C(F)(F)F)n3)n2)c1 [Example 637, 5-{2-[(3,5-dimethylphenyl)amino]-4-[3-(trifluoromethyl)-1H-pyrazol-1-yl]pyrimidin-5-yl}pyridine-3-carboxylic acid] | 100
23 | Cc1cc(C)cc(Nc2ncc(-c3cncc(C(=O)O)c3)c(-n3nc(C(F)(F)F)cc3C)n2)c1 [Example 638, 5-{2-[(3,5-dimethylphenyl)amino]-4-[5-methyl-3-(trifluoromethyl)-1H-pyrazol-1-yl]pyrimidin-5-yl}pyridine-3-carboxylic acid] | 100
24 | O=C(O)c1cncc(-c2cnc(Nc3cc(F)cc(F)c3)nc2-n2ccc(C(F)(F)F)n2)c1 [Example 639, 5-{2-[(3,5-difluorophenyl)amino]-4-[3-(trifluoromethyl)-1H-pyrazol-1-yl]pyrimidin-5-yl}pyridine-3-carboxylic acid] | 100
25 | Cc1cc(C(F)(F)F)nn1-c1nc(Nc2cc(F)cc(F)c2)ncc1-c1cncc(C(=O)O)c1 [Example 640, 5-{2-[(3,5-difluorophenyl)amino]-4-[5-methyl-3-(trifluoromethyl)-1H-pyrazol-1-yl]pyrimidin-5-yl}pyridine-3-carboxylic acid] | 100
26 | O=C(O)c1cncc(-c2cnc(Nc3cccc(F)c3)nc2-n2ccc(C(F)(F)F)n2)c1 [Example 641, 5-{2-[(3-fluorophenyl)amino]-4-[3-(trifluoromethyl)-1H-pyrazol-1-yl]pyrimidin-5-yl}pyridine-3-carboxylic acid] | 100
27 | Cc1cc(C(F)(F)F)nn1-c1nc(Nc2cccc(F)c2)ncc1-c1cncc(C(=O)O)c1 [Example 642, 5-{2-[(3-fluorophenyl)amino]-4-[5-methyl-3-(trifluoromethyl)-1H-pyrazol-1-yl]pyrimidin-5-yl}pyridine-3-carboxylic acid] | 100
28 | CS(=O)(=O)c1cccc(Nc2ncc(-c3cncc(C(=O)O)c3)c(-n3ccc(C(F)(F)F)n3)n2)c1 [Example 643, 5-(2-{[3-(methylsulfonyl)phenyl]amino}-4-[3-(trifluoromethyl)-1H-pyrazol-1-yl]pyrimidin-5-yl)pyridine-3-carboxylic acid] | 100
29 | Cc1cc(C(F)(F)F)nn1-c1nc(Nc2cccc(S(C)(=O)=O)c2)ncc1-c1cncc(C(=O)O)c1 [Example 644, 5-(2-{[3-(methylsulfonyl)phenyl]amino}-4-[5-methyl-3-(trifluoromethyl)-1H-pyrazol-1-yl]pyrimidin-5-yl)pyridine-3-carboxylic acid] | 84
